In patent publication US20240277829A1, “HIV-1 VACCINATION AND SAMT-247 MICROBICIDE TO PREVENT HIV-1 INFECTION” (priority 2021, published 2024):

Tests used:
[1] = test system: CD14^+ cells; assay: Efferocytosis assay using SAMT-247 and gp120 pooled peptides; type: cell-based, macaque
Procedure: Efferocytosis assay. The frequency of efferocytotic CD14^+ cells was assessed by Efferocytosis Assay kit (#601770, Cayman Chemical company, Ann Arbor, MI, USA). CD14^+ cells were used as effector cells, whereas apoptotic neutrophils were used as target cells. The protocol was readapted in order to use CD14^+ monocyte cells rather than differentiated macrophages due to the low cell availability. CD14^+ cells were isolated from cryopreserved PBMCs (10×10^6 cells) collected following pre-study and 2 weeks post last immunization (week 14) or 5 weeks post last immunization (week 17) by using non-human primate CD14 microbeads (#130-091-097, Miltenyi Biotec Inc.) and following manufacturer instructions. At the end of the separation cells were counted and stained with CYTOTELL™ Blue provided by the kit and following manufacturer instructions. One unrelated macaque was used as source of neutrophils as target cells. Neutrophils were isolated as previously described (Khandpur, R., et al., Sci Transl Med 5, 178ra140 (2013)). Briefly, following isolation of PBMCs by Ficoll Plaque (GE Healthcare), the cellular pellet was added to an equal volume of 20% dextran in water, gently mixed, and incubated for 1 min. Approximately three volumes of PBS were added, mixed again and incubated in the dark for 50-60 minutes. At the end of incubation, the clear layer at the top of the tube containing neutrophils was collected. Cells were pelleted and treated with ACK lysing buffer (Quality Biological, Gaithersburg, MD, USA) for 5 min at 37° C., washed with R10 and counted. Neutrophils were stained with CFSE provided by the kit and following manufacturer instructions. The apoptosis of neutrophils was induced by treatment with Staurosporine Apoptosis inducer provided by the kit. Briefly, isolated cells were resuspended in R10 containing Staurosporine diluted 1:1000 and incubated at 37° C. for 3 hours. At the end of the incubation cells were washed twice with R10 and used for the efferocytosis assay. Subsequently, effector and apoptotic target cells were cultured alone (as controls) or cocultured at a ratio of one effector CD14^+ cell and three target apoptotic neutrophils. Cells were incubated at 37° C. for 12 hours. At the end of the coculture, cells were washed with PBS, fixed with 1% paraformaldehyde in PBS and acquired on a FACSYMPHONY™ A5 and examined using FACSDIVA™ software (BD Biosciences) by acquiring all stained cells. Data were further analyzed using FlowJo v10.1 (Treestar, Inc., Ashland, OR). The frequency of efferocytotic CD14^+ cells was determined as the frequency of double-positive cells for CYTOTELL™ Blue and CFSE on the CYTOTELL™ Blue positive monocytes.
Efferocytosis assay using SAMT-247 and gp120 pooled peptides. Efferocytosis was done as described above with the exception that SAMT-247 and/or gp120 pooled peptides were added to the co-culture for 12 hours. SAMT-247 induced Efferocytosis was measured by subtracting Efferocytosis with no SAMT-247 treated effector cells from Efferocytosis with SAMT-247 treated effector cells.

[2] = test system: human PBMC effector cells; assay: ADCC assay using SAMT-247; type: cell-based
Procedure: ADCC CEM-based assay. ADCC activity was assessed as previously described using EGFP-CEM-NKr-CCR5-SNAP cells that constitutively express GFP as targets (Rahman, M. A., et al, J Immunol 203, 2459-2471(2019)). Briefly, one million target cells were incubated with 50 μg of ΔV1 gp120 protein for 2 h at 37° C. After this coating, the target cells were washed and labeled with SNAP-SURFACE® ALEXA FLUOR® 647 (New England Biolabs, Connecticut, USA S9136S) per manufacturer recommendations for 30 min at RT. Plasma samples, heat inactivated at 56° C. for 30 min, were serially diluted (7 ten-fold dilutions starting at 1:10) and 100 μl were added to wells of a 96-well V-bottom plate (Millipore Sigma). 5000 target cells (50 μl) and 250,000 human PBMCs (50 μl) were added as effectors to each well to give an effector/target (E/T) ratio of 50:1. The plate was incubated at 37° C. for 2 h followed by two PBS washes. […] Specific killing was measured by loss of GFP from the SNAPAlexa647+ target cells. […] Normalized percent killing was calculated as: (killing in the presence of plasma-background)/(killing in the presence of KK17-background) X100. […]
ADCC assay using SAMT-247. […] SAMT-247 induced ADCC was measured by subtracting ADCC with no SAMT-247 treated effector cells from ADCC with SAMT-247 treated effector cells.

[3] = CD14^+ cells collected pre and two weeks after last immunization
[4] = sorted monocytes from PBMCs stimulated with gp120 peptides ± SAMT-247

## CC(=O)Sc1ccccc1C(=O)NCCC(N)=O [SAMT-247]
[1]; [3]
  per-cell amount of engulfed apoptotic cells (MFI): augmented
  percentage of CD14^+ cells engulfing apoptotic cells: augmented
[1]; Monocytes unstimulated or +gp120 peptides
  Function: >Efferocytosis
[1]; [4]
  per-cell amount of cells engulfed (MFI): reconstituted
  percentage of CD14^+ cells engulfing apoptotic neutrophils: reconstituted
[2]; NKG2A^+, Blood and mucosa, PMA
  Function: >ADCC
[2]; effector human PBMCs pretreated with 100 nM SAMT-247 for 4 hours
  ADCC activity mediated by the plasma of all vaccinated animals: significantly augments
